From ChEMBL document CHEMBL1641486, “Synthesis of 3'-azido-3'-deoxythymidine (AZT)--Cinchona alkaloid conjugates via click chemistry: Toward novel fluorescent markers and cytostatic agents” (2011) come the findings set out here.

Converted amounts (≈) assume the structure as drawn.

This experiment has as its system KB. In words: Cytotoxicity against human KB cells assessed as inhibition of protein biosynthesis. The class given is functional. Conditions: read-out: ED50 (the source's name).
Take `COc1ccc2nccc([C@@H](O)[C@@H]3CC4CCN3CC4c3cn([C@H]4C[C@H](n5cc(C)c(=O)[nH]c5=O)O[C@@H]4CO)nn3)c2c1` (some centres undefined): the EC50 worked out at 1.3 µg/mL (≈ 2.2 µM). Then `COc1ccc2nccc([C@H](O)[C@H]3CC4CCN3CC4c3cn([C@H]4C[C@H](n5cc(C)c(=O)[nH]c5=O)O[C@@H]4CO)nn3)c2c1` (some centres undefined), with 12 µg/mL (≈ 20.4 µM); and `Cc1cn([C@H]2C[C@H](n3cc(C4CN5CCC4C[C@H]5[C@H](O)c4ccnc5ccccc45)nn3)[C@@H](CO)O2)c(=O)[nH]c1=O` (some centres undefined), with 11.6 µg/mL (≈ 20.7 µM); and `Cc1cn([C@H]2C[C@H](n3cc(C4CN5CCC4C[C@@H]5[C@@H](O)c4ccnc5ccccc45)nn3)[C@@H](CO)O2)c(=O)[nH]c1=O` (some centres undefined), with 21 µg/mL (≈ 37.5 µM).

Consider `C=CC1CN2CCC1C[C@H]2[C@H](OCc1cn([C@H]2C[C@H](n3cc(C)c(=O)[nH]c3=O)O[C@@H]2CO)nn1)c1ccnc2ccc(OC)cc12` (some centres undefined), for which the EC50 was 2.1 µg/mL (≈ 3.33 µM). The value for `C=CC1CN2CCC1C[C@@H]2[C@@H](OCc1cn([C@H]2C[C@H](n3cc(C)c(=O)[nH]c3=O)O[C@@H]2CO)nn1)c1ccnc2ccc(OC)cc12` (some centres undefined) was 3.9 µg/mL (≈ 6.19 µM); that for `C=CC1CN2CCC1C[C@H]2[C@H](OCc1cn([C@H]2C[C@H](n3cc(C)c(=O)[nH]c3=O)O[C@@H]2CO)nn1)c1ccnc2ccccc12` (some centres undefined) was greater than 100 µg/mL. Then `C=CC1CN2CCC1C[C@@H]2[C@@H](OCc1cn([C@H]2C[C@H](n3cc(C)c(=O)[nH]c3=O)O[C@@H]2CO)nn1)c1ccnc2ccccc12` (some centres undefined), with greater than 100 µg/mL; and `Nc1ccn([C@@H]2O[C@H](CO)[C@@H](O)[C@@H]2O)c(=O)n1` [CYTARABINE], with 0.99 µg/mL (≈ 4.07 µM).
